Several values for one entry are separate records, joined by “and”; a condition that tells them apart may be missing. Equal values may be shown once. Where a name gives a salt, the structure may show the parent alone.
Legend:
[1] = tested on: PP2A; experiment: Okadaic acid-induced PP2A protein expression level in PC12 cells (Western Blot); assay type: cell-based; conditions: for PP2A (Western Blot signal) / PP2A(%): 24 h
Description: PC12 cells were inoculated into a T25 culture flask. After the cells were attached to the wall, compound 1 and compound 2 were added, and then the cells were incubated for 2 h. 40 nmol/L okadaic acid was then added. Then, the cells were incubated for 24 h. The protein was extracted. Based on the Western Blot assay, the PP2A protein expression level in PC12 cells was detected through SDS-PAGE and transfer, immunoblotting, color development, and G: BOX chemiXR5 imaging.

[2] = tested on: PC12 cells; experiment: Survival rate of PC12 cells in the okadaic acid-induced injury model (CCK-8); assay type: cell-based
Description: PC12 cells were detached and counted. A cell suspension was prepared at 8.0×10^4 cells/mL. 100 μL of the cell suspension was added to each well of a 96-well cell culture plate. The 96-well cell culture plate was placed in an incubator at 37° C. in 5% CO2 and cultured for 24 h. In an experimental group, the PC12 cells were pre-incubated for 2 h in a culture medium containing a test compound (the concentrations of the compound were 0.1 μmol/L, 0.5 μmol/L, 1 μmol/L, 5 μmol/L, and 10 μmol/L respectively, and the concentrations of the compound were set according to the concentrations in Table 5, Table 6, Table 7, and Table 8). […] In addition, a negative control group (no test compound or okadaic acid added) and a model group (only okadaic acid added) were set. The 96-well cell culture plate was placed in an incubator at 37° C. in 5% CO2 and cultured for 24 h. The cells in the 96-well cell culture plate were stained with 10 μL of CCK-8 in each well, and then cultured in the incubator for 1 h to 2 h. The 96-well cell culture plate was shaken gently for 10 min to mix uniformly and remove bubbles from the 96-well cell culture plate. The OD value of each well at 2=450 nm was read by using a microplate reader. A survival rate of cells was calculated.
Calculation formula for the cell survival rate: […]
The effect of each compound on the survival rate of PC12 cells in the okadaic acid- and Aβ1-42-induced injury models was determined by the CCK-8 cell proliferation assay.

[3] = tested on: p-tauSer396 in SH-SY5Y cells; experiment: Okadaic acid-induced phosphorylation of tau protein (p-tauSer396) in SH-SY5Y cells (Western Blot); assay type: cell-based, human; conditions: okadaic acid 40 nmol/L alone (model group), 24 h, SEM, n = 3
Description: SH-SY5Y cells were cultured in vitro for 24 h in culture media containing different concentrations of compound 2. Then, the cells were treated with 40 nmol/L okadaic acid for 24 h. The p-tauSer396 level of the SH-SY5Y cells was measured by the Western Blot assay.

[4] = compound 1 μmol/L, 2 h, then okadaic acid 40 nmol/L
[5] = compound 5 μmol/L, 2 h, then okadaic acid 40 nmol/L
[6] = compound 10 μmol/L, 2 h, then okadaic acid 40 nmol/L
[7] = Rattus norvegicus, PC-12, 24 h, compound 5 μmol/L, 2 h, then okadaic acid 50 nmol/L, 24 h, PC12 cells
[8] = compound 5 μmol/L, 2 h, then okadaic acid 50 nmol/L, 24 h, PC12 cells

Compound	viability at 5 µM [2, 7] [%]	OD value at 450 nm, Mean ± SD [2, 8]	also measured
N=c1oc2cc(CO)nn2c2ccccc12 [Compound 1, (5-imino-5H-benzo[d]pyrazolo[5,1-b][1,3]oxazin-2-yl) methanol]	70.5	–	PP2A (Western Blot signal) [1, 4]: 437.09; PP2A(%) [1, 4]: 14%; PP2A (Western Blot signal) [1, 5]: 625.9; PP2A(%) [1, 5]: 17%; PP2A (Western Blot signal) [1, 6]: 953.23; PP2A(%) [1, 6]: 22%; effect on the PP2A expression level ([1]; compound 1, 5 and 10 μmol/L, compared with okadaic acid only): can significantly increase the PP2A expression level dose-dependently; viability at 0.1 µM ([2]; Rattus norvegicus, PC-12, 24 h, compound 0.1 μmol/L, 2 h, then okadaic acid 50 nmol/L, 24 h, PC12 cells): 58.2%; viability at 0.5 µM ([2]; Rattus norvegicus, PC-12, 24 h, compound 0.5 μmol/L, 2 h, then okadaic acid 50 nmol/L, 24 h, PC12 cells): 60.2%; viability at 1 µM ([2]; Rattus norvegicus, PC-12, 24 h, compound 1 μmol/L, 2 h, then okadaic acid 50 nmol/L, 24 h, PC12 cells): 63.1%; viability at 10 µM ([2]; Rattus norvegicus, PC-12, 24 h, compound 10 μmol/L, 2 h, then okadaic acid 50 nmol/L, 24 h, PC12 cells): 76.6%; survival rate compared with okadaic acid model group ([2]; compound 0.1 μmol/L): statistical difference (P<0.05); OD value at 450 nm, Mean ± SD ([2]; compound 0.1 μmol/L, 2 h, then okadaic acid 50 nmol/L, 24 h, PC12 cells): 1.337 ± 0.008; OD value at 450 nm, Mean ± SD ([2]; compound 0.5 μmol/L, 2 h, then okadaic acid 50 nmol/L, 24 h, PC12 cells): 1.382 ± 0.013; OD value at 450 nm, Mean ± SD ([2]; compound 1 μmol/L, 2 h, then okadaic acid 50 nmol/L, 24 h, PC12 cells): 1.449 ± 0.013; Survival rate % ([2]; compound 5 μmol/L, 2 h, then okadaic acid 50 nmol/L, 24 h, PC12 cells, 1440 min, 5 µM): 71.70%; OD value at 450 nm, Mean ± SD ([2]; compound 10 μmol/L, 2 h, then okadaic acid 50 nmol/L, 24 h, PC12 cells): 1.76 ± 0.032; survival rate compared with okadaic acid model group ([2]; compound 0.5, 1, 5 and 10 μmol/L): significant statistical differences (P<0.01)
CCOCc1cc2oc(=N)c3ccccc3n2n1 [Compound 3, 2-(ethoxymethyl)-5H-benzo[d]pyrazolo[5,1-b][1,3]oxazin-5-imine]	66	0.858 ± 0.009	–
CCCOCc1cc2oc(=N)c3ccccc3n2n1 [Compound 4, 2-(propoxymethyl)-5H-benzo[d]pyrazolo[5,1-b][1,3]oxazin-5-imine]	65.9	0.856 ± 0.012	–
N=c1oc2cc(COC=O)nn2c2ccccc12 [Compound 5, (5-imino-5H-benzo[d]pyrazolo[5,1-b][1,3]oxazin-2-yl)methyl formate]	65.6	0.852 ± 0.004	–
CC(=O)OCc1cc2oc(=N)c3ccccc3n2n1 [Compound 6, (5-imino-5H-benzo[d]pyrazolo[5,1-b][1,3]oxazin-2-yl)methyl acetate]	68.4	0.889 ± 0.007	–
CSCc1cc2oc(=N)c3ccccc3n2n1 [Compound 7, 2-((methylthio)methyl)-5H-benzo[d]pyrazolo[5,1-b][1,3]oxazin-5-imine]	70.8	0.919 ± 0.008	–
COCc1cc2oc(=N)c3ccc(C)cc3n2n1 [Compound 8, 2-(methoxymethyl)-8-methyl-5H-benzo[d]pyrazolo[5,1-b][1,3]oxazin-5-imine]	67.5	0.877 ± 0.009	–
CCc1ccc2c(=N)oc3cc(COC)nn3c2c1 [Compound 9, 2-(methoxymethyl)-8-ethyl-5H-benzo[d]pyrazolo[5,1-b][1,3]oxazin-5-imine]	65.6	0.852 ± 0.010	–
COCc1cc2oc(=N)c3ccc(F)cc3n2n1 [Compound 10, 2-(methoxymethyl)-8-fluoro-5H-benzo[d]pyrazolo[5,1-b][1,3]oxazin-5-imine]	64.8	0.842 ± 0.008	–
COCc1cc2oc(=N)c3cc(F)ccc3n2n1 [Compound 11, 2-(methoxymethyl)-7-fluoro-5H-benzo[d]pyrazolo[5,1-b][1,3]oxazin-5-imine]	66	0.857 ± 0.007	–
COCc1cc2oc(=N)c3cc(Cl)ccc3n2n1 [Compound 12, 2-(methoxymethyl)-7-chloro-5H-benzo[d]pyrazolo[5,1-b][1,3]oxazin-5-imine]	66.7	0.866 ± 0.003	–
COCc1cc2oc(=N)c3cc(OC)ccc3n2n1 [Compound 13, 2-(methoxymethyl)-7-methoxy-5H-benzo[d]pyrazolo[5,1-b][1,3]oxazin-5-imine]	67.7	0.879 ± 0.009	–
CCOc1ccc2c(c1)c(=N)oc1cc(COC)nn12 [Compound 14, 2-(methoxymethyl)-7-ethoxy-5H-benzo[d]pyrazolo[5,1-b][1,3]oxazin-5-imine]	66.7	0.866 ± 0.011	–
CCOCc1cc2oc(=N)c3cc(F)ccc3n2n1 [Compound 15, 2-(ethoxymethyl)-7-fluoro-5H-benzo[d]pyrazolo[5,1-b][1,3]oxazin-5-imine]	67.1	0.872 ± 0.012	–
CCCOCc1cc2oc(=N)c3cc(F)ccc3n2n1 [Compound 16, 2-(propoxymethyl)-7-fluoro-5H-benzo[d]pyrazolo[5,1-b][1,3]oxazin-5-imine]	66.9	0.869 ± 0.005	–
COCCc1cc2oc(=N)c3ccc(F)cc3n2n1 [Compound 17, 2-(methoxyethyl)-8-fluoro-5H-benzo[d]pyrazolo[5,1-b][1,3]oxazin-5-imine]	67.9	0.882 ± 0.005	–
COCCCc1cc2oc(=N)c3ccc(F)cc3n2n1 [Compound 18, 2-(methoxypropyl)-8-fluoro-5H-benzo[d]pyrazolo[5,1-b][1,3]oxazin-5-imine]	65.5	0.851 ± 0.007	–
C=C1[C@@H](O)[C@@H]2O[C@]3(CC[C@H](/C=C/[C@@H](C)[C@@H]4CC(C)=C[C@@]5(O[C@H](C[C@@](C)(O)C(=O)O)CC[C@H]5O)O4)O3)CC[C@H]2O[C@@H]1[C@@H](O)C[C@H](C)[C@H]1O[C@@]2(CCCCO2)CC[C@H]1C [Okadaic Acid, okadaic acid, reference compound]	–	–	p-tauSer396 level (%) [3]: 0.855 ± 0.023%; PP2A (Western Blot signal) ([1]; okadaic acid 40 nmol/L alone): 339.39; PP2A(%) ([1]; okadaic acid 40 nmol/L alone): 8%; OD value at 450 nm, Mean ± SD ([2]; okadaic acid 50 nmol/L alone (model group), 24 h, PC12 cells): 0.643 ± 0.014 and 1.225 ± 0.018 and 0.669 ± 0.025
